In ChEMBL document CHEMBL1201862, “PubChem BioAssay data set” (2004):
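In this assay, cells in 96-well plates receive the compound at five concentrations for 48 hours. Endpoints are linearly interpolated between the surrounding concentrations. The concentration for 50% growth inhibition is given as GI50.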 Activity calls are given as the source filed them. Rule as the data show it: active = GI50 up to about 1.1 µM and inactive = higher.

Key:
Assay in all cases: NCI-60 cell line screen, 48 h
786-0 = test system: 786-0
A498 = test system: A498
A549 = test system: A549
ACHN = test system: ACHN
BT-549 = test system: BT-549
CAKI-1 = test system: CAKI-1
CCRF-CEM = test system: CCRF-CEM
COLO 205 = test system: COLO 205
DU-145 = test system: DU-145
EKVX = test system: EKVX
HCT-116 = test system: HCT-116
HCT-15 = test system: HCT-15
HL-60 = test system: HL-60
HOP-62 = test system: HOP-62
HOP-92 = test system: HOP-92
HT-29 = test system: HT-29
Hs-578T = test system: Hs-578T
IGROV-1 = test system: IGROV-1
K562 = test system: K562
KM12 = test system: KM12
LOX IMVI = test system: LOX IMVI
MCF7 = test system: MCF7
MDA-MB-231 = test system: MDA-MB-231
MDA-MB-435 = test system: MDA-MB-435
MDA-N = test system: MDA-N
MOLT-4 = test system: MOLT-4
NCI-H226 = test system: NCI-H226
NCI-H460 = test system: NCI-H460
NCI/ADR-RES = test system: NCI/ADR-RES
OVCAR-3 = test system: OVCAR-3
OVCAR-4 = test system: OVCAR-4
OVCAR-5 = test system: OVCAR-5
OVCAR-8 = test system: OVCAR-8
PC-3 = test system: PC-3
RPMI-8226 = test system: RPMI-8226
RXF 393 = test system: RXF 393
SF-295 = test system: SF-295
SF-539 = test system: SF-539
SK-MEL-28 = test system: SK-MEL-28
SK-MEL-2 = test system: SK-MEL-2
SK-MEL-5 = test system: SK-MEL-5
SK-OV-3 = test system: SK-OV-3
SN12C = test system: SN12C
SNB-19 = test system: SNB-19
SNB-75 = test system: SNB-75
SR = test system: SR
SW-620 = test system: SW-620
T47D = test system: T47D
TK-10 = test system: TK-10
U-251 = test system: U-251
UACC-257 = test system: UACC-257
UACC-62 = test system: UACC-62
UO-31 = test system: UO-31

O=C1N[C@@H]([C@H](CCCCCO)OC(=O)c2ccccc2)CO1
GI50 (786-0): > 100 µM (inactive) | GI50 (A498): > 100 µM (inactive) | GI50 (A549): > 100 µM (inactive) | GI50 (ACHN): > 100 µM (inactive) | GI50 (BT-549): > 100 µM (inactive) | GI50 (CAKI-1): > 100 µM (inactive) | GI50 (CCRF-CEM): > 100 µM (inactive) | GI50 (COLO 205): > 10 µM (inactive) | GI50 (DU-145): > 100 µM (inactive) | GI50 (EKVX): > 100 µM (inactive) | GI50 (HCT-116): > 100 µM (inactive) | GI50 (HCT-15): > 100 µM | GI50 (HL-60): > 100 µM (inactive) | GI50 (HOP-62): > 100 µM (inactive) | GI50 (HOP-92): > 100 µM (inactive) | GI50 (HT-29): > 100 µM (inactive) | GI50 (Hs-578T): > 100 µM (inactive) | GI50 (IGROV-1): > 100 µM (inactive) | GI50 (K562): > 100 µM (inactive) | GI50 (KM12): > 100 µM (inactive) | GI50 (LOX IMVI): > 100 µM (inactive) | GI50 (MCF7): > 100 µM (inactive) | GI50 (MDA-MB-231): 3.18 µM (inactive) | GI50 (MDA-MB-435): > 100 µM (inactive) | GI50 (MDA-N): > 100 µM (inactive) | GI50 (MOLT-4): > 100 µM (inactive) | GI50 (NCI-H226): > 100 µM (inactive) | GI50 (NCI-H460): > 100 µM (inactive) | GI50 (NCI/ADR-RES): > 100 µM (inactive) | GI50 (OVCAR-3): > 100 µM (inactive) | GI50 (OVCAR-4): > 100 µM (inactive) | GI50 (OVCAR-5): > 100 µM (inactive) | GI50 (OVCAR-8): > 100 µM (inactive) | GI50 (PC-3): > 100 µM (inactive) | GI50 (RPMI-8226): > 100 µM (inactive) | GI50 (RXF 393): > 100 µM (inactive) | GI50 (SF-295): > 100 µM (inactive) | GI50 (SF-539): > 100 µM (inactive) | GI50 (SK-MEL-28): > 100 µM (inactive) | GI50 (SK-MEL-2): > 100 µM (inactive) | GI50 (SK-MEL-5): > 100 µM (inactive) | GI50 (SK-OV-3): > 100 µM (inactive) | GI50 (SN12C): > 100 µM (inactive) | GI50 (SNB-19): > 100 µM (inactive) | GI50 (SNB-75): > 100 µM (inactive) | GI50 (SR): > 100 µM (inactive) | GI50 (SW-620): > 100 µM (inactive) | GI50 (T47D): > 100 µM (inactive) | GI50 (TK-10): > 100 µM (inactive) | GI50 (U-251): > 100 µM (inactive) | GI50 (UACC-257): > 100 µM (inactive) | GI50 (UACC-62): > 100 µM (inactive) | GI50 (UO-31): > 100 µM (inactive)
